Like-named read-outs stand apart in the source and are kept apart here.
Key:
[1] = biological target: T1, α2B Human Adrenergic Receptor (Homo sapiens, UniProt P18089); type: cell-based
T1 construct: expressed in transfected cells; host or cells: Y-1 cells
T1 sequence (P18089 1-450): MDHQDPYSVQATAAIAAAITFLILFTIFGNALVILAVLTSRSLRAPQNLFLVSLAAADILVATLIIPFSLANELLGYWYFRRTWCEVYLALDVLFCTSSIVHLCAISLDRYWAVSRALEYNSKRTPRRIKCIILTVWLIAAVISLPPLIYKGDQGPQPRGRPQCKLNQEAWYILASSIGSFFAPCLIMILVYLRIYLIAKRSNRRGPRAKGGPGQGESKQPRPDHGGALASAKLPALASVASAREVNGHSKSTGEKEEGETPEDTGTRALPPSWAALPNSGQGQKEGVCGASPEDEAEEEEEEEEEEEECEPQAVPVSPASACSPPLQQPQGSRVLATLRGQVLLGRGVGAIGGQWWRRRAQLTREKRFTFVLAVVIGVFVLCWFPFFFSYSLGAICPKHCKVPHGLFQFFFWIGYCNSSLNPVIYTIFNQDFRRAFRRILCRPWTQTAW

[2] = biological target: T2, α1C Human Adrenergic Receptor (Homo sapiens, UniProt P35348); assay: Equilibrium competition binding, [3H] prazosin, membranes of transfected LM(tk-) cells
T2 construct: expressed in transfected cells; host or cells: LM(tk-) cells
T2 sequence (P35348 1-466): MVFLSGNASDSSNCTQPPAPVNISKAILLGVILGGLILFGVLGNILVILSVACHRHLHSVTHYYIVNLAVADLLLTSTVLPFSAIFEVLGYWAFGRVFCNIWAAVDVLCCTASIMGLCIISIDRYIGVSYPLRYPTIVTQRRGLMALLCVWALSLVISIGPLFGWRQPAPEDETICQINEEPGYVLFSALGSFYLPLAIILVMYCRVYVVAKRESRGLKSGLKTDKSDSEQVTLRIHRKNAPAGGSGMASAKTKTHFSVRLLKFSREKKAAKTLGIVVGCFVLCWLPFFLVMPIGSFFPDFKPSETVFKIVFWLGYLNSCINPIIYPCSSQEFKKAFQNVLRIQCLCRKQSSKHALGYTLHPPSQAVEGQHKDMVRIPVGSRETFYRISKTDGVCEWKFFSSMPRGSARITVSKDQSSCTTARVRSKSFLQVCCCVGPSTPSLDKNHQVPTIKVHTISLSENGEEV
Experimental: Binding and functional assays were performed using stably transfected human alpha adrenergic receptors. Equilibrium competition binding assays were performed with membrane preparations from cultured LM(tk-) cells stably transfected with the cloned human adrenoceptor subtypes except for α2b, which was expressed in Y-1 cells, using [^3H] prazosin for α1 receptors and [^3H] rauwolscine for α2 receptors.
Transfected cells from culture flasks were scraped into 5 ml of 5 mM Tris-HCl, 5 mM EDTA, pH 7.5, and lysed by sonication. The cell lysates were centrifuged at 1000 rpm for 5 min at 4° C., and the supernatant was centrifuged at 30,000×g for 20 min at 4° C. The pellet was suspended in 50 mM Tris-HCl, 1 mM MgCl2, and 0.1% ascorbic acid at pH 7.5. Binding of α2 antagonist [^3H] rauwolscine ([…]) to membrane preparations of LM(tk-) cells was done in a final volume of 0.25 ml and incubated at 37° C. for 20 min. Nonspecific binding was determined in the presence of 10 μM phentolamine. The reaction was stopped by filtration through GF/B filters using a cell harvester.
The construct involved ligation three partial overlapping fragments: a 5′ 0.6 kb HincII genomic clone, a central 1.8 EcoRI hippocampal cDNA clone, and a 3′ 0.6 Kb PstI genomic clone. The hippocampal cDNA fragment overlaps with the 5′ and 3′ genomic clones so that the HincII and PstI sites at the 5 and 3′ ends of the cDNA clone, respectively, were utilized for ligation. This full-length clone was cloned into the KpnI site of the expression vector, using the 5′ and 3′ KpnI sites of the fragment, derived from vector (i.e., pBluescript) and 3′-untranslated sequences, respectively. Stable cell lines were selected as described above.

[3] = biological target: T1, α2B Human Adrenergic Receptor; assay: Equilibrium competition binding, [3H] rauwolscine, membranes of transfected Y-1 cells
[4] = biological target: α2C Human Adrenergic Receptor (Homo sapiens, UniProt P18825); assay: Equilibrium competition binding, [3H] rauwolscine, membranes of transfected LM(tk-) cells
[5] = test system: Adult rhesus monkeys (Macaca mulatta); assay: Sedation and muscle relaxation rating; type: in vivo; conditions: subcutaneous, cumulative dosing 0.1-3.2 mg/kg, versus clonidine 0.032-1.0 mg/kg
Source text: Subjects. Adult rhesus monkeys (Macaca mulatta) of either sex were housed individually with free access to water. They were fed fresh fruit weekly and approximately 40 biscuits (Purina Monkey Chow) daily.
Procedure. Monkeys were trained to receive subcutaneous injections while in their home cages; they were rated by one non-blind observer familiar with the individual subjects, according to modified rating scales for sedation and muscle relaxation (Table 2); Separate scales describe increasing degrees of sedation (as measured by responsiveness to stimuli) and muscle relaxation (as observed through changes in posture). Animals were injected in a cumulative dosing procedure with a 30 minute interinjection interval; observer rating on both scales took place approximately 15 minutes after each injection.
Design. […] The same three monkeys were typically studied under each se of conditions.

[6] = cloned human receptor, [3H] prazosin, read-out: pKi Alpha-1 C (converted)
[7] = inhibition of forskolin-stimulated cAMP, NA: Not Active, read-out: pEC50 Alpha-2 B (converted)
[8] = cloned human receptor, [3H] rauwolscine, read-out: pKi Alpha-2 B (converted)

α2C Human Adrenergic Receptor, sequence (P18825 whole entry, looked up): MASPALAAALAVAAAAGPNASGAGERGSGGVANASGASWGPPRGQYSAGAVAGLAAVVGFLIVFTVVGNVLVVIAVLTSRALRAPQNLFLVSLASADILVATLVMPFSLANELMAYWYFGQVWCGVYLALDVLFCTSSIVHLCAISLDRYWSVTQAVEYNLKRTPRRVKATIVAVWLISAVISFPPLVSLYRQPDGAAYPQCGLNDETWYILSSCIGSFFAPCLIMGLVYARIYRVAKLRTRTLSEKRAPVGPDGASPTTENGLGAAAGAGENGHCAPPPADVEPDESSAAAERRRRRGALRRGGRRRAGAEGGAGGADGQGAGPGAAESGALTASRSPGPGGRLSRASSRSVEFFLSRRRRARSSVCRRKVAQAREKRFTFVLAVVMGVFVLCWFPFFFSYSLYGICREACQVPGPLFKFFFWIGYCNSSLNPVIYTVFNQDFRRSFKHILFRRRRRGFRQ

Structure (SMILES): Cn1cnc2ccc(NC3=NCCN3)c(Br)c21 [Example 12, 3-Methyl-4-bromo-5-(imidazolin-2-ylamino)Benzimidazole]
- I.A Alpha-2 B ([1]; functional cAMP assay): 1.00
- pEC50 Alpha-2 B ([1]; inhibition of forskolin-stimulated cAMP, NA: Not Active): 7.51
- pKi Alpha-1 C ([2]; cloned human receptor, [3H] prazosin): 6.46
- pKi Alpha-2 B ([3]; cloned human receptor, [3H] rauwolscine): 7.84

Structure (SMILES): FC(F)(F)c1nc2ccc(NC3=NCCN3)c(Br)c2[nH]1 [Example 46, 2-Trifluoromethyl-4-bromo-5-(2-imidazolin-2-ylamino)Benzimidazole]
- EC50 [1]: 589 nM
- I.A Alpha-2 B [1]: 0.80
- Ki [2, 6]: 10700 nM
- Ki [3]: 105 nM
- Ki [4]: 1480 nM

Structure (SMILES): Clc1cc(NC2=NCCN2)cc2[nH]cnc12 [Example 53, 7-Chloro-5-(2-imidazolin-2-ylamino)Benzimidazole]
- EC50 [1]: 18.2 nM
- I.A Alpha-2 B [1]: 1.00
- Ki [2, 6]: 1000 nM
- Ki [3]: 18.2 nM

Structure (SMILES): Cc1nc2ccc(NC3=NCCN3)c(Br)c2[nH]1 [Example 42, 2-Methyl-4-bromo-5-(2-imidazolin-2-ylamino)Benzimidazole]
- EC50 [1]: 97.7 nM
- I.A Alpha-2 B [1]: 0.60
- Ki [2, 6]: 8130 nM
- Ki [3]: 23.4 nM

Structure (SMILES): Cn1cnc2cc(NC3=NCCN3)ccc21 [Example 9, 1-Methyl-5-(2-imidazolin-2-ylamino)Benzimidazole]
- I.A Alpha-2 B ([1]; functional cAMP assay): 1.00
- EC50 [1, 7]: 58.9 nM
- Ki [2, 6]: 6760 nM
- Ki [3, 8]: 46.8 nM

Structure (SMILES): Ic1c(NC2=NCCN2)ccc2nc[nH]c12 [Example 5, 4-Iodo-5-(2-imidazolin-2-ylamino)Benzimidazole]
- EC50 [1]: 46.8 nM
- I.A Alpha-2 B [1]: 1.00
- Ki [2, 6]: 2240 nM
- Ki [3]: 30.9 nM

Structure (SMILES): c1nc2ccc(NC3=NCCN3)cc2[nH]1 [Example 1, 5-(2-Imidazolin-2-ylamino)Benzimidazole]
- EC50 [1]: 44.7 nM
- I.A Alpha-2 B [1]: 1.00
- Ki [2, 6]: 5250 nM
- Ki [3]: 74.1 nM

Structure (SMILES): Clc1c(NC2=NCCN2)ccc2nc[nH]c12 [Example 3, 4-Chloro-5-(2-imidazolin-2-ylamino)Benzimidazole]
- I.A Alpha-2 B ([1]; functional cAMP assay): 1.00
- EC50 [1, 7]: 12.6 nM
- Ki [2, 6]: 1910 nM
- Ki [3, 8]: 15.5 nM

Structure (SMILES): Brc1cc2nc[nH]c2c(Br)c1NC1=NCCN1 [Example 50, 4,6-Dibromo-5-(2-imidazolin-2-ylamino)Benzimidazole]
- EC50 [1]: 20.9 nM
- I.A Alpha-2 B [1]: 0.90
- Ki [2, 6]: 776 nM
- Ki [3]: 2.34 nM

Structure (SMILES): Cn1cnc2c(Br)c(NC3=NCCN3)ccc21 [Example 10, 1-Methyl-4-bromo-5-(2-imidazolin-2-ylamino)Benzimidazole]
- EC50 [1]: 102 nM
- I.A Alpha-2 B [1]: 1.00
- Ki [2, 6]: 851 nM
- melting point: 237 to 238 °C
- Ki [3]: 28.2 nM

Structure (SMILES): CCCc1c(NC2=NCCN2)ccc2nc[nH]c12 [Example 7, 4-n-Propyl-5-(2-imidazolin-2-ylamino)Benzimidazole]
- EC50 [1]: 200 nM
- I.A Alpha-2 B [1]: 1.00
- Ki [2, 6]: 2000 nM

Structure (SMILES): CCCCc1cc(NC2=NCCN2)cc2[nH]cnc12 [Example 56, 7-Butyl-5-(2-imidazolin-2-ylamino)Benzimidazole]
- I.A Alpha-2 B ([1]; functional cAMP assay): 0.30
- EC50 [1, 7]: 219 nM
- Ki [2, 6]: 589 nM
- Ki [3, 8]: 182 nM

Structure (SMILES): CC(C)(C)c1nc2ccc(NC3=NCCN3)c(Br)c2[nH]1 [Example 45, 2-tert-Butyl-4-bromo-5-(2-imidazolin-2-ylamino)Benzimidazole]
- EC50 [1]: 851 nM
- I.A Alpha-2 B [1]: 0.70
- Ki [2, 6]: 2190 nM
- Ki [3]: 83.2 nM

Structure (SMILES): CCCCc1c(NC2=NCCN2)ccc2nc[nH]c12 [Example 8, 4-n-Butyl-5-(2-imidazolin-2-ylamino)Benzimidazole]
- I.A Alpha-2 B ([1]; functional cAMP assay): 0.80
- EC50 [1, 7]: 234 nM
- Ki [2, 6]: 2000 nM
- Ki [3, 8]: 50.1 nM

Structure (SMILES): CCc1nc2ccc(NC3=NCCN3)c(Br)c2[nH]1 [Example 43, 2-Ethyl-4-bromo-5-(2-imidazolin-2-ylamino)Benzimidazole]
- EC50 [1]: 162 nM
- I.A Alpha-2 B [1]: 0.80
- Ki [2, 6]: 2140 nM
- Ki [3]: 33.9 nM

Structure (SMILES): Cc1c(N=C2NCCN2)ccc2[nH]cnc12 [Example 4, 4-Methyl-5-(2-imidazolin-2-ylamino)Benzimidazole]
- EC50 [1, 7]: 9.77 nM
- Ki [2, 6]: 724 nM
- Ki [3, 8]: 9.12 nM
- sedation [5]: decreased sedation relative to the reference compound, clonidine

Structure (SMILES): Clc1cc(NC2=NCCN2)c(Br)c2[nH]cnc12 [Example 60, 4-Bromo-7-chloro-5-(2-imidazolin-2-ylamino)Benzimidazole]
- EC50 [1]: 17.8 nM
- I.A Alpha-2 B [1]: 0.9
- Ki [2, 6]: 479 nM
- Ki [3]: 0.468 nM

Structure (SMILES): OCCn1cnc2c(Br)c(NC3=NCCN3)ccc21 [Example 38, 1-(2-Hydroxyethyl)-4-bromo-5-(2-imidazolin-2-ylamino)Benzimidazole]
- I.A Alpha-2 B ([1]; functional cAMP assay): 0.80
- EC50 [1, 7]: 158 nM
- Ki [2]: 6760 nM
- Ki [3, 8]: 525 nM

Structure (SMILES): Brc1c(NC2=NCCN2)ccc2nc(C(c3ccccc3)c3ccccc3)[nH]c12 [Example 48, 2-Diphenylmethyl-4-bromo-5-(2-imidazolin-2-ylamino)Benzimidazole]
- I.A Alpha-2 B ([1]; functional cAMP assay): 0.80
- EC50 [1, 7]: 200 nM
- Ki [2, 6]: 120 nM
- Ki [3, 8]: 661 nM

Structure (SMILES): CC(C)c1nc2ccc(NC3=NCCN3)c(Br)c2[nH]1 [Example 44, 2-Isopropyl-4-bromo-5-(2-imidazolin-2-ylamino)Benzimidazole]
- EC50 [1]: 91.2 nM
- I.A Alpha-2 B [1]: 0.80
- Ki [2, 6]: 3090 nM
- Ki [3]: 46.8 nM

Structure (SMILES): Brc1c(NC2=NCCN2)ccc2nc[nH]c12 [Example 2, 4-Bromo-5-(2-imidazolin-2-ylamino)Benzimidazole]
- I.A Alpha-2 B ([1]; functional cAMP assay): 1.00
- EC50 [1, 7]: 18.6 nM
- Ki [2]: 1700 nM
- Ki [3, 8]: 20.4 nM

Structure (SMILES): COc1ccc(Cn2cnc3c(Br)c(NC4=NCCN4)ccc32)cc1 [Example 36, 1-(4-Methoxybenzyl)-4-bromo-5-(2-imidazolin-2-ylamino)Benzimidazole]
- I.A Alpha-2 B ([1]; functional cAMP assay): 0.60
- EC50 [1, 7]: 282 nM
- Ki [2]: 6460 nM
- Ki [3, 8]: 107 nM

From patent publication US6403626B1, “Benzimidazole derivatives” (Synaptic Pharmaceutical Corporation, priority 1994, dated 2002)
